Results taken from patent US20210386792A1, “A METHOD FOR INCREASING POPULATION OF SPERMATOGONIAL STEM CELLS” (priority 2018, published 2021).

Assays:
LiECs = assay: GDNF ELISA in conditioned media from LiECs; type: cell-based; details: mouse LiECs
Procedure: (§1) Testis, lung, or liver ECs were plated (10,000 cells ml^−1) on 12 well dishes coated with 0.1% gelatin and cultured for 24 hours. Conditioned media was harvested at 24 and 48 hours after FGF-2 (2 ng ml^−1, 20 ng ml^−1 and 50 ng ml^−1) treatment and analyzed by ELISA for GDNF (Promega GDNF Emax immunoassay system, #G7621) following the manufacturer's instruction. Statistics was analyzed using Graph Pad Prism. For quantification of Gdnf mRNA, total RNA was isolated from the cells using Direct-zol RNA MiniPrep (Zymo Research) and reverse transcribed using High Capacity cDNA Reverse Transcription Kit (Appliedbiosystems), according to the manufacturer's instructions. All gene expression levels were normalized to GAPDH mRNA levels.
(§2) FIG. 2. a. Quantication of GDNF by ELISA in conditioned media from TECs, LuECs and LiECs after treatment with the indicated concentration of FGF-2 for 2 days, n=3. Bar=100 μm. Data are presented as the mean±s.e.m. b. Representative brighteld (BF) and GFP images of 2D cultures of GFP+ SSCs co-cultured with STO cells or TECs plus exogenous GDNF and FGF-2 on days 1 and 8 after seeding. Quantication of stem cell numbers 8 days after co-culture with STO or TECs and the average colony area are shown on the right, n=3. Data are presented as the mean±s.e.m. Bar=100 μm. *P<0.05. c. […]

LuECs = assay: GDNF ELISA in conditioned media from LuECs; type: cell-based; details: mouse LuECs
Procedure: as §1, §2

NFATc1 and EGR-1 = assay: Nuclear translocation of NFATc1 and EGR-1 in TECs; type: cell-based, mouse; details: TEC, 2 ng/ml FGF-2
Procedure: Quantication of nuclear translocation of EGR1 and NFATc1 in TECs after treatment with conditioned media (CM), 2 ng ml-1 FGF-2±CsA. Values are mean±s.e.m. g.

TECs = assay: GDNF ELISA in conditioned media from TECs; type: cell-based, mouse; details: for GDNF production in conditioned media of TECs after FGF-2 treatment: wild-type mouse TECs
Procedure: as §1
FIG. 2. a. Quantication of GDNF by ELISA in conditioned media from TECs, LuECs and LiECs after treatment with the indicated concentration of FGF-2 for 2 days, n=3. Bar=100 μm. Data are presented as the mean±s.e.m. b. Representative brighteld (BF) and GFP images of 2D cultures of GFP+ SSCs co-cultured with STO cells or TECs plus exogenous GDNF and FGF-2 on days 1 and 8 after seeding. Quantication of stem cell numbers 8 days after co-culture with STO or TECs and the average colony area are shown on the right, n=3. Data are presented as the mean±s.e.m. Bar=100 μm. *P<0.05. c. Images of 2D co-cultures of GFP+Thy1.2+ SSCs with TECs and immunostained with the germ cell marker DDX4. Inset: bar=10 μm. d. The 3D spheroid co-cultures of GFP+Thy-1.2+ SSCs with TECs or LuECs were generated with Matrigel but no exogenous GDNF or FGF-2. GFP+ Spheroid co-cultures were immunostained with DDX4 (red), Oct4 (white) and DAPI (blue) at day 15. Quantication of the average diameter and total number of colonies is shown on the right; n=3. All data are presented as the mean±s.e.m. Bar=50 m, *P<0.05. **P<0.01. e. Representative BF images merged with GFP images of serially passaged GFP+Thy-1.2+ SSCs co-cultured with TECs at the indicated passage number (1st, 2nd, 3rd or 4th) or day (D). […]

fibroblast growth factor-2 [FGF-2]
GDNF production in conditioned media of LiECs after FGF-2 treatment (LiECs): not | GDNF production in conditioned media of LuECs after FGF-2 treatment (LuECs): not | nuclear localization of EGR1 (NFATc1 and EGR-1): increased | nuclear localization of NFATc1 (NFATc1 and EGR-1): increased | GDNF expression in media of Fgfr1−/− TECs after FGF2 treatment (TECs; Fgfr1−/− TECs compared to Fgfr1+/+ wild-type TECs): no increase in GDNF expression | GDNF production in conditioned media of TECs after FGF-2 treatment (TECs): induced significant levels of GDNF | GDNF production in conditioned media of TECs after FGF-2 treatment (TECs; listed as FGF2): stimulated significant GDNF production
